Ends that are not written are not given here.
Experiments:
ovary [1] = experiment: Mouse ovary-targeting capacity of polypeptide ICG probe (small animal imaging); format: in vivo; conditions: adult mice, tail vein injection 100 μL/mouse, imaged after 24 h; FIG. 1
Experimental: A solution of the polypeptide ICG probe (containing SEQ ID NO: 1) prepared in Example 2, an ICG solution (2 mM), and PBS were injected intravenously into the tail of the adult mice at 100 μL/mouse. After 24 h, the mice were detected under an imager for small animals.

ovary [2] = experiment: Mouse ovary-targeting capacity of polypeptide AIE probe (small animal imaging); format: in vivo; conditions: adult mice, tail vein injection 100 μL/mouse, imaged after 24 h; FIG. 2
Experimental: The polypeptide AIE probe (containing SEQ ID NO: 1) prepared in Example 2, a scrambled polypeptide AIE probe, an AIE empty particle, and PBS were injected intravenously into the tail of the adult mice at 100 μL/mouse. After 24 h, the mice were detected under an imager for small animals.

mouse ovary = experiment: Localization of polypeptide targeting in mouse ovary (cryosection, laser confocal microscope); format: in vivo; conditions: ovaries from Example 4, 10 μm cryosections, DAPI; FIG. 3
From the text: To further confirm the localization for the targeting of the polypeptide to the ovary, the four groups of mouse ovaries from Example 4 were fixed with 4% PFA, then cryosectioned (10 μm), stained for cell nuclei (DAPI), and observed for fluorescence localization under a laser confocal microscope.

[3] = tested on: DHT-induced hyperandrogenic female mice; experiment: Hyperandrogen dihydrotestosterone (DHT)-induced mouse model, reproductive and metabolic symptoms; format: in vivo
Experimental: (§1) Wild type female mice at postnatal day 25 (D25) were randomly grouped into a control group (CTRL), a DHT group, and a DHT+OCN15 ([…] is the polypeptide set forth in SEQ ID NO: 1) group, with at least 8 mice in each group. The control group was implanted subcutaneously with an empty pump and gavaged with 200 μL of normal saline every day; the DHT group was implanted subcutaneously with a slow-release pump containing 5 mg of dihydrotestosterone (DHT) powder and gavaged with 200 μL of normal saline every day; and the DHT+OCN15 group was implanted subcutaneously with a slow-release pump containing 5 mg of DHT powder and gavaged with 200 μl of normal saline containing the polypeptide (500 μg/Kg) every day. The modeling time was 60 days.

oocytes = experiment: Oocyte post-ovulation aging model (in vitro aging in M16 medium); format: cell-based, mouse
Experimental: Wild type female mice were intraperitoneally injected with 5 IU PMSG (pregnant mare serum gonadotropin), followed by an intraperitoneal injection of 5 IU hCG (human chorionic gonadotropin) 48 h later for superovulation. Oocytes were collected after 14 h, and cumulus cells were removed using hyaluronidase. Then, the oocytes were randomly divided into the Aging group and the Aging+OCN15 group and cultured in M16 medium for aging. The Control group was aged for 0 h, the Aging group for 12 h, and the Aging+OCN15 group in M16 containing the polypeptide (1 μg/mL) for 12 h.

DHT model mice liver = experiment: Hyperandrogen-induced mouse liver lipid droplet accumulation (HE staining); format: in vivo; conditions: DHT+OCN15 treated group vs DHT model mice; FIG. 9
Experimental: as §1
The method for the induction of the mouse PCOS model by hyperandrogen DHT is described in Example 6. After modeling, the mouse liver was taken, fixed overnight by 4% paraformaldehyde (PFA), dehydrated by alcohol gradient, embedded by paraffin, sectioned (5 μm), and subjected to HE staining for morphological observation.

## CC1(C)C(/C=C/C=C/C=C/C=C2\N(CCCCS(=O)(=O)[O-])c3ccc4ccccc4c3C2(C)C)=[N+](CCCCS(=O)(=O)[O-])c2ccc3ccccc3c21.[Na+] [ICG, reference compound]
Ovary [1]
  fluorescent signal at the ovarian site: do not show a fluorescent signal at the ovarian site

## OCN15-AIE: AIE probe containing SEQ ID NO: 1, polypeptide linked to AIE by click chemistry (DBCO linker) (YLGASVPSPDPLEPT; also: AIE probe attached via DBCO click linker, site not given here)
Ovary [2]
  fluorescent signal at the ovarian site: has a specific signal at the ovarian site
Mouse ovary
  fluorescence localization in the ovary: mainly targets the interstitial cell and the membrane cell in the mouse ovary

## OCN15-ICG: ICG probe containing SEQ ID NO: 1, polypeptide linked to ICG by click chemistry (DBCO linker) (YLGASVPSPDPLEPT; also: ICG dye attached via DBCO click linker, site not given here)
Ovary [1]
  fluorescent signal at the ovarian site: has a specific signal at the ovarian site

## YLGASVPSPDPLEPT [OCN15, mouse metabolite, ovary-targeting polypeptide]
[3]; 500 μg/Kg gavage daily with DHT pump, 60 days after modeling, FIG. 4C
  anogenital distance: significantly improved
[3]; 500 μg/Kg gavage daily with DHT pump, 60 days modeling, normal above 4 days, hyperandrogenic around 2 days, FIG. 4B
  number of estrous days in ten days: ~3 days
[3]; 500 μg/Kg gavage daily with DHT pump, 60 days, FIG. 4A
  ovarian polycystic changes: reduce the polycystic changes
[3]; 500 μg/Kg gavage daily with DHT pump, FIG. 5A
  body weight: alleviate the increase in body weight
[3]; 500 μg/Kg gavage daily with DHT pump, FIG. 5B
  body weight gain: alleviate the increase in body weight and body weight gain caused by DHT to some extent
[3]; 500 μg/Kg gavage daily with DHT pump, FIG. 5C
  weight of gonadal fat: reducing the weight of mouse gonadal fat
[3]; 500 μg/Kg gavage daily with DHT pump, FIG. 5D
  lean body mass: increased lean body mass
[3]; at 30 min after oral glucose, 60 days after modeling, FIG. 4D
  blood glucose level after oral administration of glucose: significant decrease in blood glucose level compared with the group with DHT alone
[3]; day 60 of modeling, immunofluorescence, FIG. 6B
  androgen receptor AR expression in the epidermal layer of the neck and back skin: significantly reduce DHT-caused significant increase of androgen receptor AR expression
[3]; day 60 of modeling, FIG. 6A
  hair loss on the neck and back skin: can significantly improve the phenomenon
oocytes; 1 μg/mL polypeptide in M16, 12 h aging, FIG. 7A
  oocyte fragmentation and degeneration: ameliorate the fragmentation and degeneration caused by in vitro aging of oocytes
oocytes; 1 μg/mL polypeptide in M16, 12 h aging, FIG. 7B
  zona pellucida sclerosis: ameliorate the zona pellucida sclerosis caused by in vitro aging of oocytes
oocytes; 1 μg/mL polypeptide in M16, 12 h in vitro aging, FIG. 7C
  in vitro fertilization rate: improve the low fertilization rate caused by in vitro aging of oocytes
DHT model mice liver
  liver lipid droplet accumulation: alleviated

— US20250057911A1, “OVARY-TARGETING POLYPEPTIDE, AND DERIVATIVE AND THE USE THEREOF” (SHENZHEN INSTITUTES OF ADVANCEDTECHNOLOGY CHINESE ACADEMY …, priority 2022, published 2025)
